Results as given in the supplement of paper PMC10331698.
± gives the standard deviation of the averaged measurements.

Columns and labels:
Experiment in all cases: level (log10 ratio to DMSO vehicle control); higher = higher biomarker level / cell amount than vehicle control
Conditions in all cases: in DMSO
[1] = compound: CCN(CCO)S(=O)(=O)C(F)(F)C(F)(F)C(F)(F)C(F)(F)C(F)(F)C(F)(F)C(F)(F)C(F)(F)F [N-Ethyl-N-(2-hydroxyethyl)perfluorooctanesulfonamide]
Procedure: (§1)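 BioMAP Diversity Plus panel of 12 human primary cell co-culture systems (3C, 4H, LPS, SAg, BT, BF4T, BE3C, CASM3C, HDF3CGF, KF3CT, MyoF, Mphg). Compounds were added 1 h before stimulation and left for 24 h (MyoF 48 h; BT 72 h for soluble read-outs or 6 d for IgG). Biomarkers were read by ELISA, cytotoxicity by SRB, PBMC viability and proliferation by Alamar Blue. Each well value was divided by the mean of 8 DMSO control wells on the same plate and log10 transformed; duplicate blinded samples were tested at 4 concentrations.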

[2] = compound: FC(F)(F)C(F)(C(F)(F)F)C(F)(F)C(F)(F)CC1CO1 [3-(Perfluoro-3-methylbutyl)-1,2-propenoxide]
Procedure: as §1

[3] = compound: FC(F)(F)C(F)(F)C(F)(F)C(F)(F)C(F)(F)C(F)(F)C(F)(F)C(F)(F)CCS [2-(Perfluorooctyl)ethanthiol]
Procedure: as §1

[4] = compound: FC(F)(F)C(F)(F)C(F)(F)C(F)(F)C(F)(F)CCI [1-Iodo-1H,1H,2H,2H-perfluoroheptane]
Procedure: as §1

[5] = compound: NC(=O)C(F)(F)C(F)(F)C(F)(F)F [Heptafluorobutyramide]
Procedure: as §1

[6] = compound: NCC(F)(F)C(F)(F)C(F)(F)C(F)(F)C(F)(F)C(F)(F)C(F)(F)F [1H,1H-Perfluorooctylamine]
Procedure: as §1

[7] = compound: O=C(O)C(F)(F)C(F)(F)C(F)(F)C(F)(F)C(F)(F)C(F)(F)F [Perfluoroheptanoic acid]
Procedure: as §1

Test System | level (log10) ([1]; 6700 nM) | level (log10) ([1]; 20000 nM) | level (log10) ([2]; 6700 nM) | level (log10) ([2]; 20000 nM) | level (log10) ([3]; 6700 nM) | level (log10) ([3]; 20000 nM) | level (log10) ([4]; 6700 nM) | level (log10) ([4]; 20000 nM) | level (log10) ([4]; 60000 nM) | level (log10) ([5]; 6700 nM) | level (log10) ([5]; 20000 nM) | level (log10) ([5]; 60000 nM) | level (log10) ([6]; 6700 nM) | level (log10) ([6]; 20000 nM) | level (log10) ([6]; 60000 nM) | level (log10) ([7]; 6700 nM) | level (log10) ([7]; 20000 nM) | level (log10) ([7]; 60000 nM)
3C:CD106/VCAM-1 | 0.0005 ± 0.005 | 0.005 ± 0.0085 | -0.0275 ± 0.019 | -0.0005 ± 0.013 | -0.016 ± 0.027 | -0.0105 ± 0.036 | -0.01 ± 0.0028 | -0.02 ± 0.0042 | -0.0205 ± 0.022 | -0.0085 ± 0.0021 | -0.01 ± 0.014 | -0.025 | -0.0035 ± 0.00071 | -0.016 ± 0.0057 | -0.005 ± 0.0099 | 0.0165 ± 0.018 | -0.02 ± 0.0042 | -0.003 ± 0.014
KF3CT:CXCL9/MIG | 0.004 ± 0.0085 | -0.032 ± 0.013 | 0.005 ± 0.014 | 0.001 ± 0.013 | 0.016 ± 0.018 | 0.014 ± 0.0042 | 0.003 ± 0.0014 | 0.003 | 0.006 ± 0.0014 | 0.0065 ± 0.0021 | 0.0005 ± 0.0078 | 0.0155 ± 0.0064 | 0 ± 0.0057 | 0.0005 ± 0.018 | -0.005 ± 0.0099 | -0.0085 ± 0.005 | -0.0015 ± 0.0035 | 0.011 ± 0.013
BE3C:tPA | 0.142 ± 0.0099 | -0.036 ± 0.058 | -0.0215 ± 0.04 | -0.037 ± 0.033 | 0.0105 ± 0.0064 | 0.0165 ± 0.016 | -0.0055 ± 0.074 | 0.0465 ± 0.073 | 0.0495 ± 0.047 | -0.027 ± 0.017 | -0.0055 ± 0.0021 | -0.0115 ± 0.028 | -0.035 ± 0.016 | -0.001 ± 0.034 | -0.0145 ± 0.028 | -0.0205 ± 0.026 | -0.0255 ± 0.0078 | 0.017 ± 0.031
BE3C:MMP-1 | 0.255 ± 0.03 | 0.328 ± 0.0071 | 0.0085 ± 0.076 | 0.0445 ± 0.1 | -0.0055 ± 0.022 | -0.032 ± 0.031 | 0.004 ± 0.023 | 0.074 ± 0.03 | 0.162 ± 0.0078 | 0.007 ± 0.0057 | 0.0045 ± 0.018 | 0.0195 ± 0.073 | -0.0305 ± 0.042 | -0.0235 ± 0.026 | -0.001 ± 0.04 | 0.0345 ± 0.015 | 0.0405 ± 0.043 | 0.0865 ± 0.067
3C:CD142/Tissue Factor | 0.0825 ± 0.036 | 0.235 ± 0.059 | -0.0095 ± 0.044 | -0.0125 ± 0.047 | -0.0345 ± 0.022 | -0.0335 ± 0.015 | 0.003 ± 0.016 | 0.0155 ± 0.00071 | 0.0295 ± 0.00071 | -0.002 ± 0.064 | -0.007 ± 0.082 | -0.0235 ± 0.1 | -0.0275 ± 0.00071 | -0.0105 ± 0.00071 | -0.0255 ± 0.011 | -0.0065 ± 0.037 | -0.004 ± 0.027 | 0.0285 ± 0.039
BE3C:SRB | -0.0175 ± 0.011 | -0.04 ± 0.0071 | -0.0005 ± 0.00071 | 0.0015 ± 0.0021 | 0.0055 ± 0.0092 | 0.0095 ± 0.005 | -0.003 ± 0.0057 | -0.0105 ± 0.0021 | -0.0085 ± 0.012 | -0.0025 ± 0.0035 | 0.0005 ± 0.00071 | -0.002 ± 0.0042 | 0 | 0.0035 ± 0.00071 | 0.013 ± 0.024 | -0.006 ± 0.0071 | -0.0065 ± 0.0035 | 0.0035 ± 0.011
CASM3C:CXCL9/MIG | -0.0675 ± 0.005 | -0.166 ± 0.073 | -0.015 ± 0.014 | -0.001 ± 0.017 | -0.0025 ± 0.023 | 0.0395 ± 0.0064 | -0.007 ± 0.0042 | -0.0025 ± 0.0021 | 0.008 ± 0.011 | -0.0035 ± 0.00071 | -0.01 ± 0.0014 | 0.0005 ± 0.011 | -0.014 ± 0.021 | -0.0245 ± 0.0021 | 0.006 ± 0.04 | 0.006 ± 0.023 | 0.015 ± 0.016 | 0.054 ± 0.051
HDF3CGF:Collagen III | -0.0465 ± 0.05 | -0.142 ± 0.044 | -0.0295 ± 0.049 | -0.049 ± 0.081 | 0.0005 ± 0.033 | 0.002 ± 0.035 | 0.0695 ± 0.026 | -0.008 ± 0.12 | -0.0595 ± 0.022 | -0.017 ± 0.014 | -0.006 ± 0.013 | -0.0145 ± 0.005 | -0.009 ± 0.021 | -0.0055 ± 0.00071 | -0.0165 ± 0.023 | -0.021 ± 0.011 | -0.0385 ± 0.033 | -0.013 ± 0.016
MyoF:CD106/VCAM-1 | -0.0675 ± 0.0064 | -0.534 ± 0.053 | 0.008 ± 0.011 | -0.0305 ± 0.019 | 0.0155 ± 0.00071 | -0.0735 ± 0.083 | 0.001 ± 0.0042 | -0.026 ± 0.0028 | -0.0205 ± 0.0064 | -0.0165 ± 0.0064 | -0.017 ± 0.028 | -0.0145 ± 0.018 | -0.007 ± 0.0085 | -0.0295 ± 0.011 | 0.002 ± 0.013 | -0.013 ± 0.0071 | -0.004 ± 0.016 | -0.0125 ± 0.015
HDF3CGF:CCL2/MCP-1 | -0.0485 ± 0.005 | -0.1335 ± 0.00071 | -0.0175 ± 0.022 | -0.004 ± 0.0099 | -0.0505 ± 0.03 | -0.077 ± 0.014 | 0.0085 ± 0.0035 | 0.02 ± 0.021 | -0.013 ± 0.035 | 0.0005 ± 0.04 | 0.0055 ± 0.036 | 0.0185 ± 0.066 | -0.006 ± 0.016 | -0.0045 ± 0.012 | -0.0165 ± 0.0078 | -0.0085 ± 0.0064 | 0.0135 ± 0.00071 | 0.0115 ± 0.016
BE3C:MMP-9 | 0.018 ± 0.0071 | -0.0535 ± 0.04 | -0.005 ± 0.0071 | -0.018 ± 0.011 | -0.0195 ± 0.011 | -0.069 ± 0.018 | -0.0125 ± 0.0092 | 0.026 ± 0.0099 | 0.0525 ± 0.021 | -0.0135 ± 0.021 | 0.005 ± 0.0071 | 0.0005 ± 0.012 | 0.001 ± 0.023 | -0.0105 ± 0.032 | 0.005 ± 0.048 | 0.0015 ± 0.018 | 0.042 ± 0.0014 | 0.0785 ± 0.057
KF3CT:CD54/ICAM-1 | 0.0415 ± 0.0078 | 0.002 ± 0.0028 | 0.0055 ± 0.011 | -0.0105 ± 0.0064 | -0.001 ± 0.034 | -0.002 ± 0.0085 | 0.0015 ± 0.019 | -0.0045 ± 0.00071 | -0.0165 ± 0.0021 | -0.012 ± 0.014 | -0.002 ± 0.0028 | 0.0015 ± 0.012 | 0 | 0.0015 ± 0.005 | 0.011 ± 0.0057 | -0.023 ± 0.0042 | -0.0085 ± 0.0035 | -0.0315 ± 0.00071
lMphg:CD106/VCAM-1 | -0.037 ± 0.03 | -0.0435 ± 0.035 | 0.005 | -0.0115 ± 0.022 | -0.0055 ± 0.0064 | -0.0365 ± 0.011 | 0.005 | -0.004 ± 0.0042 | -0.017 ± 0.011 | 0.011 ± 0.014 | 0.004 ± 0.0071 | 0.013 ± 0.0028 | -0.005 ± 0.0014 | -0.003 ± 0.014 | -0.0165 ± 0.005 | -0.0115 ± 0.005 | 0.001 ± 0.0014 | -0.0095 ± 0.032
HDF3CGF:Collagen I | 0.0835 ± 0.03 | 0.112 ± 0.0092 | 0.003 ± 0.078 | -0.0135 ± 0.15 | 0.0055 ± 0.052 | 0.0125 ± 0.052 | 0.003 ± 0.017 | 0.0055 ± 0.005 | -0.093 ± 0.061 | 0.0065 ± 0.011 | -0.0025 ± 0.015 | 0.0155 ± 0.069 | -0.047 | -0.0275 ± 0.0078 | 0.028 ± 0.081 | -0.036 ± 0.045 | -0.009 ± 0.024 | 0.0395 ± 0.061
